Activity calls are given as the source filed them. No cut-off for these calls is given here.

For one compound, Activity results are on record in ChEMBL document CHEMBL5376011, “Discovery of Anti-Hypercholesterolemia Agents Targeting LXRα from Marine Microorganism-Derived Natural Products” (J Nat Prod, 2024).

Assay [1] deals with Mus musculus. Briefly: Antihypercholesterolemic activity against high cholesterol diet fed C57BL/6J mouse assessed as reduction in SCD1 protein level at 300 microg/kg, ip administered every 2 days for 15 days by Western blot analysis. The format is functional, organism-based. Conditions: dose 300.0 µg/kg, time 15.0 day.
Assay [2] deals with Mus musculus. Briefly: Antihypercholesterolemic activity against high cholesterol diet fed LXRalpha knockout C57BL/6J mouse assessed as reduction in serum triglycerides level at 300 microg/kg, ip administered every 2 days for 15 days. The assay is classed as functional, organism-based. Conditions: dose 300.0 µg/kg, time 15.0 day.
Assay [3] relates to Mus musculus. Briefly: Antihypercholesterolemic activity against high cholesterol diet fed LXRalpha knockout C57BL/6J mouse assessed as reduction in serum total cholesterol level at 300 microg/kg, ip administered every 2 days for 15 days. The assay is classed as functional, organism-based. Conditions: dose 300.0 µg/kg, time 15.0 day.
Assay [4] has as its system Mus musculus. Put plainly: Antihypercholesterolemic activity against high cholesterol diet fed LXRalpha knockout C57BL/6J mouse assessed as reduction in serum high density lipoprotein cholesterol level at 300 microg/kg, ip administered every 2 days for 15 days. The assay is classed as functional, organism-based. Conditions: dose 300.0 µg/kg, time 15.0 day.
For assay [5], the system named is Mus musculus. Put plainly: Antihypercholesterolemic activity against high cholesterol diet fed C57BL/6J mouse assessed as reduction in degree of hepatic steatosis at 300 microg/kg, ip administered every 2 days for 15 days by H&E staining based analysis. The assay is classed as functional, organism-based. Conditions: dose 300.0 µg/kg, time 15.0 day.
Assay [6] deals with Mus musculus. Briefly: Antihypercholesterolemic activity against high cholesterol diet fed C57BL/6J mouse assessed as improvement in hepatocyte liposis at 300 microg/kg, ip administered every 2 days for 15 days by H&E staining based analysis. Conditions: dose 300.0 µg/kg, time 15.0 day. The format is functional, organism-based.
Assay [7] relates to Mus musculus. Put plainly: Antihypercholesterolemic activity against high cholesterol diet fed C57BL/6J mouse assessed as improvement in hepatocyte degeneration at 300 microg/kg, ip administered every 2 days for 15 days by H&E staining based analysis. The format is functional, organism-based. Conditions: dose 300.0 µg/kg, time 15.0 day.
Assay [8] concerns HepG2. Briefly: Effect on LXRbeta mRNA expression in human HepG2 cells at 25 uM incubated for 24 hrs by RT-qPCR analysis. The format is functional, cell-based.
Assay [9] deals with Mus musculus. Put plainly: Antihypercholesterolemic activity against high cholesterol diet fed C57BL/6J mouse assessed as reduction in degree of hepatic steatosis at 300 microg/kg, ip administered every 2 days for 15 days by Oil red staining based analysis. The assay is classed as functional, organism-based. Conditions: dose 300.0 µg/kg, time 15.0 day.
The subject of assay [10] is Mus musculus. Briefly: Antihypercholesterolemic activity against high cholesterol diet induced C57BL/6J mouse assessed as reduction in total cholesterol level in plasma at 300 microg/kg, ip administered every 2 days for 15 days. Conditions: dose 300.0 µg/kg, time 15.0 day. The format is functional, organism-based.
Assay [11] has as its system Mus musculus. Briefly: Antihypercholesterolemic activity against high cholesterol diet fed LXRalpha knockout C57BL/6J mouse assessed as improvement in hepatic steatosis at 300 microg/kg, ip administered every 2 days for 15 days by Oil red staining based analysis. The assay is classed as functional, organism-based. Conditions: dose 300.0 µg/kg, time 15.0 day.
Assay [12] concerns Mus musculus. Briefly: Antihypercholesterolemic activity against high cholesterol diet induced C57BL/6J mouse assessed as reduction in plasma low-density lipoprotein cholesterol level at 300 microg/kg, ip administered every 2 days for 15 days. The assay is classed as functional, organism-based. To be noted: dose 300.0 µg/kg, time 15.0 day.
Assay [13] relates to Mus musculus. Briefly: Antihypercholesterolemic activity against high cholesterol diet fed LXRalpha knockout C57BL/6J mouse assessed as reduction in serum alanine aminotransferase level at 300 microg/kg, ip administered every 2 days for 15 days. The format is functional, organism-based. To be noted: dose 300.0 µg/kg, time 15.0 day.
The test system of assay [14] is Mus musculus. Briefly: Antihypercholesterolemic activity against high cholesterol diet induced C57BL/6J mouse assessed as reduction in hepatocyte damage at 300 microg/kg, ip administered every 2 days for 15 days. The assay is classed as functional, organism-based. Conditions: dose 300.0 µg/kg, time 15.0 day.
Assay [15] deals with Mus musculus. Briefly: Antihypercholesterolemic activity against high cholesterol diet induced C57BL/6J mouse assessed as reduction in serum aspartate aminotransferase level at 300 microg/kg, ip administered every 2 days for 15 days. The format is functional, organism-based. To be noted: dose 300.0 µg/kg, time 15.0 day.
The subject of assay [16] is HepG2. Briefly: Improvement of lipid metabolism in palmitic acid and oleic acid induced human HepG2 cell model of hepatic steatosis assessed as reduction in total cellular cholesterol level at 25 uM preincubated with palmitic acid and oleic acid for 48 hrs followed by compound addition and measured after 24 hrs. The format is functional, cell-based.
The subject of assay [17] is Mus musculus. Briefly: Antihypercholesterolemic activity against high cholesterol diet fed C57BL/6J mouse assessed as reduction of fine vacuoles in the cytoplasm at 300 microg/kg, ip administered every 2 days for 15 days by Oil red staining based analysis. The format is functional, organism-based. To be noted: dose 300.0 µg/kg, time 15.0 day.
The test system of assay [18] is Mus musculus. Briefly: Antihypercholesterolemic activity against high cholesterol diet fed C57BL/6J mouse assessed as reduction in hepatocyte lysis necrosis at 300 microg/kg, ip administered every 2 days for 15 days by H&E staining based analysis. The format is functional, organism-based. To be noted: dose 300.0 µg/kg, time 15.0 day.
In assay [19] the target is T1, Oxysterols receptor LXR-alpha (Homo sapiens) (UniProt Q13133).
T1 sequence (whole entry): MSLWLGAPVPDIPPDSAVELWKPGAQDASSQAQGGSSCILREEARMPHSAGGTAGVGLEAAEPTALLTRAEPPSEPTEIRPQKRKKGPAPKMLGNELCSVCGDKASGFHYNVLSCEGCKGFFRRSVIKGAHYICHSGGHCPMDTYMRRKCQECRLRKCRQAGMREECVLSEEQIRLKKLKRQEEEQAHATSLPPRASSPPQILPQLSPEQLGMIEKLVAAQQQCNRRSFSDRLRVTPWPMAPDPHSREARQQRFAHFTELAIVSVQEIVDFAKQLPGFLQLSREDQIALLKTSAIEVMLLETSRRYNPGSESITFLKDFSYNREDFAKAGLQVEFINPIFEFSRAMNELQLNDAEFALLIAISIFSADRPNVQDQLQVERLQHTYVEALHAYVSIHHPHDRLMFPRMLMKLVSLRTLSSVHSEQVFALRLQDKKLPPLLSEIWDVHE
Put plainly: Agonist activity at LXRalpha in human HepG2 cells assessed as upregulation of CYP7A1 protein expression level at 25 uM incubated for 24 hrs by Western blot analysis. To be noted: filed as agonist. The assay is classed as cell-based.

Assay [20] concerns Mus musculus. Put plainly: Antihypercholesterolemic activity against high cholesterol diet fed LXRalpha knockout C57BL/6J mouse assessed as improvement in liver lipid droplet accumulation at 300 microg/kg, ip administered every 2 days for 15 days by H&E staining based analysis. The assay is classed as functional, organism-based. Conditions: dose 300.0 µg/kg, time 15.0 day.
Assay [21] concerns Mus musculus. Put plainly: Antihypercholesterolemic activity against high cholesterol diet fed LXRalpha knockout C57BL/6J mouse assessed as reduction in serum aspartate aminotransferase level at 300 microg/kg, ip administered every 2 days for 15 days. The format is functional, organism-based. Conditions: dose 300.0 µg/kg, time 15.0 day.

Regarding `COc1ccc2c3c([nH]c2c1)[C@H](C=C(C)C)N1C(=O)[C@@H]2CCCN2C(=O)[C@]1(O)[C@H]3O`, the result with Mus musculus [1], with Mus musculus [5], in the assay on Mus musculus [6], in the assay with Mus musculus [7], in the assay with Mus musculus [9] and in the assay with Mus musculus [10] was Active. For the same compound, the outcome in the assay with Mus musculus [11], in the assay with Mus musculus [12], in the assay with Mus musculus [14], in the assay with Mus musculus [15], with HepG2 [16] and in the assay on Mus musculus [17] was Active. The outcome (in the assay on Mus musculus [18]; in assay [19]; in the assay with Mus musculus [20]) was Active. Moreover, the outcome in the assay with Mus musculus [2], in the assay on Mus musculus [3], in the assay on Mus musculus [4], with HepG2 [8], in the assay with Mus musculus [13] and with Mus musculus [21] was inactive.
